Publication PMC8398766, “Do Small Molecules Activate the TrkB Receptor in the Same Manner as BDNF? Limitations of Published TrkB Low Molecular Agonists and Screening for Novel TrkB Orthosteric Agonists” (Pharmaceuticals, 2021)

Legend:
Assay in all cases: BioPrint Profile Panel
Type in all cases: binding
[1] = molecular target: T1, sst4 (Homo sapiens, UniProt P31391); conditions: Agonist, Receptor, read-out: % of specific inhibition
T1 construct: purchased Eurofins Discovery (Cerep) BioPrint Profile Panel
Text: (§1) The BioPrint® Profile Panel service offered by Eurofins Discovery (Poitiers, France) was chosen to perform selectivity analysis.

[2] = molecular target: T2, CRF1 (Homo sapiens, UniProt P34998); conditions: Agonist, Receptor, read-out: % of specific inhibition
T2 construct: purchased Eurofins Discovery (Cerep) BioPrint Profile Panel
Text: as §1

[3] = molecular target: T3, MC1 (Mus musculus, UniProt Q01727); conditions: Agonist, Receptor, read-out: % of specific inhibition
T3 construct: purchased Eurofins Discovery (Cerep) BioPrint Profile Panel
Text: as §1

[4] = system: kainate; conditions: 10 μM; Agonist; Ion Channel
Text: as §1

[5] = molecular target: T4, PPARγ (Homo sapiens, UniProt P37231); conditions: Agonist, Receptor, read-out: % of specific inhibition
T4 construct: purchased Eurofins Discovery (Cerep) BioPrint Profile Panel
Text: as §1

[6] = molecular target: T5, A2B (Homo sapiens, UniProt P29275); conditions: Antagonist, Receptor
T5 construct: purchased Eurofins Discovery (Cerep) BioPrint Profile Panel
T5 sequence (P29275 whole entry): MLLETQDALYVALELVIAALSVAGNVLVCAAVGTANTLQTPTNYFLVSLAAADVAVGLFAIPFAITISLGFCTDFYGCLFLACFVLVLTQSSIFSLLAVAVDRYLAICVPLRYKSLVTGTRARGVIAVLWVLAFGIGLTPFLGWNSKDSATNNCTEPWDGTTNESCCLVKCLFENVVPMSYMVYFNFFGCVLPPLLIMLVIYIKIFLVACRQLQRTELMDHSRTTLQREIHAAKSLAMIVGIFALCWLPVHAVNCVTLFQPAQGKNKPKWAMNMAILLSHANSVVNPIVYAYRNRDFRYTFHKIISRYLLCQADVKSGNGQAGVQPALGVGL
Text: as §1

[7] = molecular target: T6, ETB (Homo sapiens, UniProt P24530); conditions: Agonist, Receptor, read-out: % of specific inhibition
T6 construct: purchased Eurofins Discovery (Cerep) BioPrint Profile Panel
T6 sequence (P24530 27-442): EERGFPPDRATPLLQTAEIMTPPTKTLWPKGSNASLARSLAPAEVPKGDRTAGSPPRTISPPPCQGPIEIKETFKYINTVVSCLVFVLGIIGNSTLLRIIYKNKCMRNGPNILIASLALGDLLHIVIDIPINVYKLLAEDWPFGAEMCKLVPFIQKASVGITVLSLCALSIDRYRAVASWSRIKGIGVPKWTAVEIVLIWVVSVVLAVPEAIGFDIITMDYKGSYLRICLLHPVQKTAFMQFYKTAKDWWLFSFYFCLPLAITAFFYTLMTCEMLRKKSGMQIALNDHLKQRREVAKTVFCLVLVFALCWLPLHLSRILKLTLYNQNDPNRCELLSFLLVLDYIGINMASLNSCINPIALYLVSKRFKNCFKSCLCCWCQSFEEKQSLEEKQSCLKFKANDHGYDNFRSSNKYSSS
Text: as §1

[8] = molecular target: T7, β1 (Homo sapiens, UniProt P08588); conditions: Agonist, Receptor, read-out: % of specific inhibition
T7 construct: purchased Eurofins Discovery (Cerep) BioPrint Profile Panel
Text: as §1

[9] = system: N muscle-type; conditions: 10 μM; Antagonist; Receptor
Text: as §1

[10] = molecular target: T8, sst1 (Homo sapiens, UniProt P30872); conditions: Agonist, Receptor, read-out: % of specific inhibition
T8 construct: purchased Eurofins Discovery (Cerep) BioPrint Profile Panel
Text: as §1

[11] = molecular target: T9, glucagon (Homo sapiens, UniProt P47871); conditions: Agonist, Receptor, read-out: % of specific inhibition
T9 construct: purchased Eurofins Discovery (Cerep) BioPrint Profile Panel
Text: as §1

[12] = molecular target: T10, M3 (Homo sapiens, UniProt P20309); conditions: Antagonist, Receptor, read-out: % of specific inhibition
T10 construct: purchased Eurofins Discovery (Cerep) BioPrint Profile Panel
Text: as §1

[13] = molecular target: T11, FP (Homo sapiens, UniProt P43088); conditions: Agonist, Receptor, read-out: % of specific inhibition
T11 construct: purchased Eurofins Discovery (Cerep) BioPrint Profile Panel
Text: as §1

[14] = molecular target: T12, IP (PGI2) (Homo sapiens, UniProt P43119); conditions: Agonist, Receptor, read-out: % of specific inhibition
T12 construct: purchased Eurofins Discovery (Cerep) BioPrint Profile Panel
T12 sequence (P43119 whole entry): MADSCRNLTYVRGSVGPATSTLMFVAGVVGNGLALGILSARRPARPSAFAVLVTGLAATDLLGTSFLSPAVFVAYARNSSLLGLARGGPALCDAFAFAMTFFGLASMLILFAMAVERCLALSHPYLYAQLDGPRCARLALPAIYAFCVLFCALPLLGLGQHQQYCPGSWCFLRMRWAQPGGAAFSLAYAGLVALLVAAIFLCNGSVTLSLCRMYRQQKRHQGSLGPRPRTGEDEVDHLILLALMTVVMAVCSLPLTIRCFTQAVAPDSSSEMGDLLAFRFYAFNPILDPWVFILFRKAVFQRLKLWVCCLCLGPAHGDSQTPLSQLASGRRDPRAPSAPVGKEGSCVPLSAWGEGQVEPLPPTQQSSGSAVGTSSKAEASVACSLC
Text: as §1

[15] = molecular target: T13, M1 (Homo sapiens, UniProt P11229); conditions: Antagonist, Receptor, read-out: % of specific inhibition
T13 construct: purchased Eurofins Discovery (Cerep) BioPrint Profile Panel
T13 sequence (P11229 whole entry): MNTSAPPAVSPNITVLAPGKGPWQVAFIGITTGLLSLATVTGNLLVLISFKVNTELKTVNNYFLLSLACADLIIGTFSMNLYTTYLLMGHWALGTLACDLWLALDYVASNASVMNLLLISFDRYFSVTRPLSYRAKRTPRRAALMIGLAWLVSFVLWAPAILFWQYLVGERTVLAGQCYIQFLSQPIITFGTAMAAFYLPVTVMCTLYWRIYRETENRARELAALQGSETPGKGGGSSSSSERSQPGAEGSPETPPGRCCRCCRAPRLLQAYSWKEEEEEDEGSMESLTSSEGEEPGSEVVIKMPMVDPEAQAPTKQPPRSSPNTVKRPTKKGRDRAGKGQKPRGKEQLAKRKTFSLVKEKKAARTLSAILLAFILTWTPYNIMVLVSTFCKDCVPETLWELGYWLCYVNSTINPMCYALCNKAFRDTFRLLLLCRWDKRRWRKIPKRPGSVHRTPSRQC
Text: as §1

[16] = molecular target: T14, H2 (Homo sapiens, UniProt P25021); conditions: Antagonist, Receptor, read-out: % of specific inhibition
T14 construct: purchased Eurofins Discovery (Cerep) BioPrint Profile Panel
Text: as §1

[17] = molecular target: T15, D2S (Homo sapiens, UniProt P14416); conditions: Agonist, Receptor, read-out: % of specific inhibition
T15 construct: purchased Eurofins Discovery (Cerep) BioPrint Profile Panel
Text: as §1

[18] = molecular target: T16, α1B (Homo sapiens, UniProt P35368); conditions: Antagonist, Receptor, read-out: % of specific inhibition
T16 construct: purchased Eurofins Discovery (Cerep) BioPrint Profile Panel
T16 sequence (P35368 whole entry): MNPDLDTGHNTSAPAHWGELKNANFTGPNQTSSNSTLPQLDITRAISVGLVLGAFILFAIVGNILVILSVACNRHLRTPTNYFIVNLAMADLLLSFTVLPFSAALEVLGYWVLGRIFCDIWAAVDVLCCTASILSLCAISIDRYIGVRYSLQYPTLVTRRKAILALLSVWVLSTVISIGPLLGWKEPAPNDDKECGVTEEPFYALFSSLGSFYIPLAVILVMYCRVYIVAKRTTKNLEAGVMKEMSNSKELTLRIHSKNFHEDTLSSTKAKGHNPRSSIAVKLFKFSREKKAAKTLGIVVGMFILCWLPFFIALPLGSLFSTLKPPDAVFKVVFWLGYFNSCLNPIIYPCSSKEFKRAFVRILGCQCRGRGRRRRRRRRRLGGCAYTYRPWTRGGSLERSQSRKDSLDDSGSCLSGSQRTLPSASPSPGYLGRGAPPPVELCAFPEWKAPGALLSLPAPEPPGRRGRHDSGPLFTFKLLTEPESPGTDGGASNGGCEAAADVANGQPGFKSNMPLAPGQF
Text: as §1

[19] = molecular target: T17, 5-HT1A (Homo sapiens, UniProt P08908); conditions: Agonist, Receptor, read-out: % of specific inhibition
T17 construct: purchased Eurofins Discovery (Cerep) BioPrint Profile Panel
Text: as §1

[20] = molecular target: T18, 5-HT2B (Homo sapiens, UniProt P41595); conditions: Agonist, Receptor
T18 construct: purchased Eurofins Discovery (Cerep) BioPrint Profile Panel
T18 sequence (P41595 whole entry): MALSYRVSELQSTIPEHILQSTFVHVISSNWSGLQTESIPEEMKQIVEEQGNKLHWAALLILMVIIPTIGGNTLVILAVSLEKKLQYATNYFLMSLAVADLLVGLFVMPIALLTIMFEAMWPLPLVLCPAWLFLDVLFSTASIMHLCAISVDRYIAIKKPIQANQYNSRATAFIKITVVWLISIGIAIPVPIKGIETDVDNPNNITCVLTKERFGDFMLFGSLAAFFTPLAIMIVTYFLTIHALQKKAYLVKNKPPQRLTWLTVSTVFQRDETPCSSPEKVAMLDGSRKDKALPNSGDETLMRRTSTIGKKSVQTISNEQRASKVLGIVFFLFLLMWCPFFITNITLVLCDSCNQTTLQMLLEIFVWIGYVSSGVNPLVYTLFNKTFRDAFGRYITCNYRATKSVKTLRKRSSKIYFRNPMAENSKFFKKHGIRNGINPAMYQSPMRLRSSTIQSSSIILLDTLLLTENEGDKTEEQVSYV
Text: as §1

[21] = molecular target: T19, MT1 (ML1A) (Homo sapiens, UniProt P48039); conditions: Agonist, Receptor, read-out: % of specific inhibition
T19 construct: purchased Eurofins Discovery (Cerep) BioPrint Profile Panel
Text: as §1

[22] = molecular target: T20, α2C (Homo sapiens, UniProt P18825); conditions: Antagonist, Receptor, read-out: % of specific inhibition
T20 construct: purchased Eurofins Discovery (Cerep) BioPrint Profile Panel
Text: as §1

[23] = molecular target: T21, Estrogen Erα (Homo sapiens, UniProt P03372); conditions: Agonist, Receptor, read-out: % of specific inhibition
T21 construct: purchased Eurofins Discovery (Cerep) BioPrint Profile Panel
T21 sequence (P03372 whole entry): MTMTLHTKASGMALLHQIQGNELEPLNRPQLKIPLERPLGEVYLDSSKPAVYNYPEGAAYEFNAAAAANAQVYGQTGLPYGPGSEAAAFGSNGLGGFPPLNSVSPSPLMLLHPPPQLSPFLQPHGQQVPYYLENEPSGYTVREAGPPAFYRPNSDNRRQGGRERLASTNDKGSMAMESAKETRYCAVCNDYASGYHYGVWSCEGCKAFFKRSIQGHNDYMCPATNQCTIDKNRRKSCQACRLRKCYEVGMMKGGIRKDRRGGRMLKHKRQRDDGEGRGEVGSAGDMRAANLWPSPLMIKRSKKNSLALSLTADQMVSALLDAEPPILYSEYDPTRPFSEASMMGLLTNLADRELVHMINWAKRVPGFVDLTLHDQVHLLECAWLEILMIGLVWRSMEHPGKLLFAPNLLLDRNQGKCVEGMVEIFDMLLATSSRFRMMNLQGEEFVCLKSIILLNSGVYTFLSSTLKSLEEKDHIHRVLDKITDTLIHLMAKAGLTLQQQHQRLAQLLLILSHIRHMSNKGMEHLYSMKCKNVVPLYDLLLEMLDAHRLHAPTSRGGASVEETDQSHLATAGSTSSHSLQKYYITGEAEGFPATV
Text: as §1

[24] = molecular target: T22, β3 (Homo sapiens, UniProt P13945); conditions: Antagonist, Receptor, read-out: % of specific inhibition
T22 construct: purchased Eurofins Discovery (Cerep) BioPrint Profile Panel
T22 sequence (P13945 whole entry): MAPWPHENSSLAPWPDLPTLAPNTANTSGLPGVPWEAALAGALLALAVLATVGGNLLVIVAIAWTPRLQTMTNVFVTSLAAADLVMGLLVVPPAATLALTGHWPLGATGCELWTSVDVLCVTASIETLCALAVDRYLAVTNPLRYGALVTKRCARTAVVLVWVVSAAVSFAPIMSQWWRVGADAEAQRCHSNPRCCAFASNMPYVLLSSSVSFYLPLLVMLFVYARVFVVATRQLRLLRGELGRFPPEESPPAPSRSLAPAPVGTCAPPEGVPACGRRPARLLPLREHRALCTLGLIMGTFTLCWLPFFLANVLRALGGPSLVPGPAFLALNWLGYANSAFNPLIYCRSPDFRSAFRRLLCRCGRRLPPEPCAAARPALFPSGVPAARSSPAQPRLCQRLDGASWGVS
Text: as §1

[25] = system: Cl- channel; conditions: 10 μM; Antagonist; Ion Channel
Text: as §1

[26] = molecular target: T23, 5-HT6 (Homo sapiens, UniProt P50406); conditions: Agonist, Receptor, read-out: % of specific inhibition
T23 construct: purchased Eurofins Discovery (Cerep) BioPrint Profile Panel
Text: as §1

[27] = molecular target: T24, 5-HT2A (Homo sapiens, UniProt P28223); conditions: Agonist, Receptor, read-out: % of specific inhibition
T24 construct: purchased Eurofins Discovery (Cerep) BioPrint Profile Panel
T24 sequence (P28223 whole entry): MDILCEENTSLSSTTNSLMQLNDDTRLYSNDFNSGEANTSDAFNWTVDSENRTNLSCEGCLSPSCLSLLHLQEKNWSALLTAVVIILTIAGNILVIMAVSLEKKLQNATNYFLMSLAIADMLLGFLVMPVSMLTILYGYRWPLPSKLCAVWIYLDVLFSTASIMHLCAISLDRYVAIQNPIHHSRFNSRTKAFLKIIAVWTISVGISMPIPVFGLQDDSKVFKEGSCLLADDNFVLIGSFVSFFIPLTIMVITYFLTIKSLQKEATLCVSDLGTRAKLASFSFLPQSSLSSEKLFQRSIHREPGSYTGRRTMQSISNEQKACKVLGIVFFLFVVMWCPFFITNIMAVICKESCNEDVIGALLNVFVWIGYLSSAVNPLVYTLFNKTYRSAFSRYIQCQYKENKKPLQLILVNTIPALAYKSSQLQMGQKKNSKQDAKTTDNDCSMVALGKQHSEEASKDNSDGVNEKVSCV
Text: as §1

[28] = molecular target: T25, UT (Homo sapiens, UniProt Q9UKP6); conditions: Agonist, Receptor, read-out: % of specific inhibition
T25 construct: purchased Eurofins Discovery (Cerep) BioPrint Profile Panel
Text: as §1

[29] = molecular target: T26, H1 (Homo sapiens, UniProt P35367); conditions: Antagonist, Receptor, read-out: % of specific inhibition
T26 construct: purchased Eurofins Discovery (Cerep) BioPrint Profile Panel
Text: as §1

[30] = system: glycine; conditions: 10 μM; Antagonist; Ion Channel
Text: as §1

[31] = molecular target: T27, motilin (Homo sapiens, UniProt O43193); conditions: Agonist, Receptor, read-out: % of specific inhibition
T27 construct: purchased Eurofins Discovery (Cerep) BioPrint Profile Panel
Text: as §1

[32] = system: Na+ channel; conditions: 10 μM; Antagonist; Ion Channel
Text: as §1

[33] = system: AMPA; conditions: 10 μM; Agonist; Ion Channel
Text: as §1

[34] = molecular target: T28, 5-HT3 (Homo sapiens, UniProt P46098); conditions: Antagonist, Ion Channel, read-out: % of specific inhibition
T28 construct: purchased Eurofins Discovery (Cerep) BioPrint Profile Panel
Text: as §1

[35] = molecular target: T29, M2 (Homo sapiens, UniProt P08172); conditions: Antagonist, Receptor, read-out: % of specific inhibition
T29 construct: purchased Eurofins Discovery (Cerep) BioPrint Profile Panel
Text: as §1

[36] = molecular target: T30, MAO-A (Rattus norvegicus, UniProt P21396); conditions: Antagonist, Non-Kinase Enzyme, read-out: % of specific inhibition
T30 construct: purchased Eurofins Discovery (Cerep) BioPrint Profile Panel
Text: as §1

[37] = molecular target: T31, 5-HT7 (Homo sapiens, UniProt P34969); conditions: Agonist, Receptor, read-out: % of specific inhibition
T31 construct: purchased Eurofins Discovery (Cerep) BioPrint Profile Panel
Text: as §1

[38] = system: Ca2+ channel (verapamil site); conditions: 10 μM; Antagonist (verapamil site); Ion Channel
Text: as §1

[39] = molecular target: T32, A3 (Homo sapiens, UniProt P0DMS8); conditions: Agonist, Receptor
T32 construct: purchased Eurofins Discovery (Cerep) BioPrint Profile Panel
T32 sequence (P0DMS8 whole entry): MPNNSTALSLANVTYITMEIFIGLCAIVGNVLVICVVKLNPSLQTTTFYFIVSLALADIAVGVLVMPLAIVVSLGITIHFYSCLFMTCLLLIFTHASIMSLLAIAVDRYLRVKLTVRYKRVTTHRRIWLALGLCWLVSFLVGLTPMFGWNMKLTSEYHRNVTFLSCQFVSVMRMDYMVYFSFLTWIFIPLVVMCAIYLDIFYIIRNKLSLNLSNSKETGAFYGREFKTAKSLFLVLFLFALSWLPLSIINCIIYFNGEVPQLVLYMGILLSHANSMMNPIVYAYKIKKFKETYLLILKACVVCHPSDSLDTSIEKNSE
Text: as §1

[40] = molecular target: T33, RARα (Homo sapiens, UniProt P10276); conditions: Agonist, Receptor, read-out: % of specific inhibition
T33 construct: purchased Eurofins Discovery (Cerep) BioPrint Profile Panel
T33 sequence (P10276 whole entry): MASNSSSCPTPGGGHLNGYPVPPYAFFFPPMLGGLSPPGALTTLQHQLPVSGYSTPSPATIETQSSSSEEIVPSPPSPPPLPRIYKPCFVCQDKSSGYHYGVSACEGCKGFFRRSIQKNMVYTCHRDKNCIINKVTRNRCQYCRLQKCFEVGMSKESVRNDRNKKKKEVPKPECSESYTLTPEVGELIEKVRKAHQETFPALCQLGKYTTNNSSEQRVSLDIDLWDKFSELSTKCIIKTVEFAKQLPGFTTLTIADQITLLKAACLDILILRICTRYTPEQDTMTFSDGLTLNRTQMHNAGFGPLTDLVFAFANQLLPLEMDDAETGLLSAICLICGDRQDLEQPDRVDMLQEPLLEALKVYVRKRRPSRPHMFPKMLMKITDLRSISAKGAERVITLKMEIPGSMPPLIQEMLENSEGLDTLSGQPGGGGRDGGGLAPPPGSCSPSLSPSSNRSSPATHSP
Text: as §1

[41] = molecular target: T34, choline transporter (Homo sapiens, UniProt Q9GZV3); conditions: Antagonist, read-out: % of specific inhibition
T34 construct: purchased Eurofins Discovery (Cerep) BioPrint Profile Panel
Text: as §1

[42] = molecular target: T35, APJ (apelin) (Homo sapiens, UniProt P35414); conditions: Agonist, Receptor, read-out: % of specific inhibition
T35 construct: purchased Eurofins Discovery (Cerep) BioPrint Profile Panel
Text: as §1

[43] = molecular target: T36, GABAA1 (h) (α1, β2, γ2) (Homo sapiens, UniProt P14867+P47870); conditions: Agonist, Receptor, read-out: % of specific inhibition
T36 construct: purchased Eurofins Discovery (Cerep) BioPrint Profile Panel
Text: as §1

[44] = molecular target: T37, EP2 (Homo sapiens, UniProt P43116); conditions: Agonist, Receptor, read-out: % of specific inhibition
T37 construct: purchased Eurofins Discovery (Cerep) BioPrint Profile Panel
Text: as §1

[45] = read-out: % Inhibition of Control Specific Binding

## O=c1cc(-c2ccccc2)oc2c(O)c(O)ccc12 [7,8-DHF, 7,8-dihydroxyflavone]
[1]
  inhibition at 10 µM: -23%
[2]
  inhibition at 10 µM: 5%
[3]
  inhibition at 10 µM: -5%
[4]
  % of specific inhibition: 26%
[5]
  inhibition at 10 µM: 21%
[6]; 10 μM
  % Inhibition of Control Specific Binding: 78.3%
[6]; [45]
  inhibition at 10 µM: 78%
[7]
  inhibition at 10 µM: -26%
[8]
  inhibition at 10 µM: -5%
[9]
  % of specific inhibition: -20%
[10]
  inhibition at 10 µM: 2%
[11]
  inhibition at 10 µM: 3%
[12]
  inhibition at 10 µM: -7%
[13]
  inhibition at 10 µM: 6%
[14]
  inhibition at 10 µM: 17%
[15]
  inhibition at 10 µM: -4%
[16]
  inhibition at 10 µM: -37%
[17]
  inhibition at 10 µM: -15%
[18]
  inhibition at 10 µM: -3%
[19]
  inhibition at 10 µM: -26%
[20]; 10 μM
  % Inhibition of Control Specific Binding: 50.2%
[20]; [45]
  inhibition at 10 µM: 50%
[21]
  inhibition at 10 µM: 20%
[22]
  inhibition at 10 µM: 1%
[23]
  inhibition at 10 µM: 7%
[24]
  inhibition at 10 µM: -25%
[25]
  % of specific inhibition: -7%
[26]
  inhibition at 10 µM: -3%
[27]
  inhibition at 10 µM: -4%
[28]
  inhibition at 10 µM: -9%
[29]
  inhibition at 10 µM: -5%
[30]
  % of specific inhibition: -1%
[31]
  inhibition at 10 µM: -2%
[32]
  % of specific inhibition: -11%
[33]
  % of specific inhibition: 7%
[34]
  inhibition at 10 µM: -2%
[35]
  inhibition at 10 µM: -2%
[36]
  inhibition at 10 µM: 35%
[37]
  inhibition at 10 µM: 4%
[38]
  % of specific inhibition: 2%
[39]; 10 μM
  % Inhibition of Control Specific Binding: 68.2%
[39]; [45]
  inhibition at 10 µM: 68%
[40]
  inhibition at 10 µM: -16%
[41]
  inhibition at 10 µM: 5%
[42]
  inhibition at 10 µM: 4%
[43]
  inhibition at 10 µM: 12%
[44]
  inhibition at 10 µM: 2%
